# Experiments:
# Set-up in all cases: species or system AML cell lines (8); Primary HTS, single concentration about 10 uM, Cell Titer Glo viability; log10 luminescence, per cent inhibition relative to cycloheximide control
# Conditions in all cases: 72 h, relative to cycloheximide control, log10 luminescence; inhibitor
# CHRF288-11 = tested on: CHRF288-11
# CMK = tested on: CMK
# CMS = tested on: CMS
# M07e = tested on: M07e
# ML-2 = tested on: ML-2
# MOLM-13 = tested on: MOLM-13
# MV4-11 = tested on: MV4-11
# U937 = tested on: U937
SMILES,CHRF288-11 %inh (CHRF288-11) [%],CMK %inh (CMK) [%],CMS %inh (CMS) [%],M07e %inh (M07e) [%],ML-2 %inh (ML-2) [%],MOLM-13 %inh (MOLM-13) [%],MV4-11 %inh (MV4-11) [%],U937 %inh (U937) [%]
O=C1NC(O)C(c2c[nH]c3ccccc23)=C1c1c[nH]c2ccccc12 (stereo not shown) [SJ000581000-1],3.04,-1.548,-2.539,-1.63,-2.056,-0.2184,0.3489,-0.5983
Cn1cc(C2=C(Oc3ccccc3)C(=O)NC2=O)c2ccccc21 [SJ000581001-1],-2.432,-0.6422,-3.067,-0.2429,-1.623,-0.02006,-0.8354,0.6544
Nc1c(C(=O)c2cccc(-c3cccnc3)c2)cnn1-c1ccc(F)cc1F [SJ000581002-1],23.74,96.76,5.431,15.2,15.07,19.66,0.1873,25.61
COc1ccc(C2=C(c3cn(C)c4ccccc34)C(=O)NC2=O)cc1OC [SJ000581003-1],6.661,38.95,5.298,-0.2143,-1.913,0.7842,4.678,6.689
O=C1NC(=N[C@@H](CO)c2ccccc2)S/C1=C\c1ccc2ncccc2c1 [SJ000581004-1],15.94,55.48,4.436,12.47,3.929,24.69,41.34,9.087
O=C1NC(=N[C@H](CO)c2ccccc2)S/C1=C\c1ccc2ncccc2c1 [SJ000581004-2],1.03,28.24,2.583,10.69,2.475,7.874,3.175,9.058
Nc1c(C(=O)c2cccc(C#CCO)c2)cnn1-c1ccc(F)cc1 [SJ000581005-1],-2.428,-3.113,3.189,1.15,-1.489,-0.3055,-2.436,-1.339
O=C1NC(=NCc2ccccn2)S/C1=C\c1ccc2ncccc2c1 [SJ000581006-1],-1.509,2.326,-0.1401,3.262,-0.04041,6.642,1.986,2.876
Cn1cc(C2=C(c3c4n(c5ccccc35)CCCCC4)C(=O)NC2=O)c2ccccc21 [SJ000581007-1],-2.847,2.966,-2.233,0.1866,-3.106,-0.4157,-1.05,-0.6469
Cn1cc(C2=C(c3cccc(NCC(O)CO)c3)C(=O)NC2=O)c2cc(Cl)ccc21 (stereo not shown) [SJ000581009-1],28.92,105.4,98.55,19.12,10.75,37.38,70.02,8.397
Cn1cc(C2=C(c3cn(CCCCCO)c4ccccc34)C(=O)NC2=O)c2ccccc21 [SJ000581010-1],17.96,27.55,1.022,1.341,-1.548,6.709,-1.111,-0.3264
Cn1cc(C2=C(c3cn(CCCN=C(N)N)c4ccccc34)C(=O)NC2=O)c2ccccc21 [SJ000581011-1],6.037,-5.09,-3.925,-0.6273,1.035,3.172,6.352,-0.6406
Cc1cc(C)c2c(n1)sc1c(N)ncnc12 [SJ000581012-1],1.655,-2.956,2.019,-1.463,-0.0326,-1.383,-4.498,3.328
COc1cc[nH]c1/C=C1\C(=O)Nc2ccc(F)c(C#CC3(O)CCNCC3)c21 [SJ000581013-1],71.86,93.46,92.23,109.1,57.56,105.4,81.96,80.6
COc1cccc(C(=O)c2sc(Nc3ccc(N4CCN(C(C)C)CC4)cc3)nc2N)c1 [SJ000581014-1],15.68,33.11,7.49,8.945,8.496,103.8,15.32,25.4
O=C1NC(=NCCc2cccs2)S/C1=C\c1ccc2ncccc2c1 [SJ000581015-1],-3.354,2.413,2.886,0.2412,1.872,1.226,1.469,4.783
Cn1cc(C2=C(N3CCOCC3)C(=O)NC2=O)c2ccccc21 [SJ000581016-1],-0.4853,-3.99,2.558,-1.546,1.058,-0.4077,-3.16,-0.03629
Cn1cc(C2=C(c3c4n(c5ccccc35)CCN(C(N)=S)C4)C(=O)NC2=O)c2ccccc21 [SJ000581017-1],61.39,110.3,66.21,14.07,14.21,83.86,52.04,15.09
Nc1c(C(=O)c2ccc(CCCN3CCOCC3)cc2)cnn1-c1ccc(F)cc1 [SJ000581018-1],6.032,0.7543,2.2,0.8427,1.663,3.662,0.41,1.825
O=C1NC(=N[C@@H](CO)Cc2ccccc2)S/C1=C\c1ccc2ncccc2c1 [SJ000581019-1],42.52,99.34,8.828,15.21,8.345,62.37,35.98,18.33

# From article PMC6522510 (Nature Communications, 2019)
